The results in this text go back to patent US10513521B2, “Compositions and methods for inhibiting BMP” (The Brigham and Women's Hospital, Inc., priority 2014, dated 2019).

Where “and” joins values, the source holds several entries; their conditions need not be identical. Equal entries are not always repeated.

The target of one experiment is T1, ALK1 (Bos taurus, UniProt A4FUX2).
T1 construct: The BAOEC cell line was employed for the measurement of ALK1 activity using BMP9 as the agonist; host or cells: BAOEC (bovine aortic endothelial cells)
T1 sequence (A4FUX2 23-503): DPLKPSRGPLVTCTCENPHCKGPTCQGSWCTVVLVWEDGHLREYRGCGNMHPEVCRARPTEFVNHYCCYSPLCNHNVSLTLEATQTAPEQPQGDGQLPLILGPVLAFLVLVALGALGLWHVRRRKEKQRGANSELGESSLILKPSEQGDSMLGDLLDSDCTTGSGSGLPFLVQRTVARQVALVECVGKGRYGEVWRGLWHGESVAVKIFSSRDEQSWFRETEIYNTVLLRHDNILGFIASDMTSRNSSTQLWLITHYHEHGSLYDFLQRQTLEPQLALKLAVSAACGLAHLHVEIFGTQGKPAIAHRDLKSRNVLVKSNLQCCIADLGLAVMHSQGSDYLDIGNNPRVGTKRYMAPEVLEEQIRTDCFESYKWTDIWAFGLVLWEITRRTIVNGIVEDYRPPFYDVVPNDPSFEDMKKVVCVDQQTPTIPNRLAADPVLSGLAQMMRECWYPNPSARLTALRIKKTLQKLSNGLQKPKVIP
The experiment in a line: HTRF pSMAD1 cell-based ALK1 assay (BAOEC cells, BMP9 as agonist). Further details: species or system Bovine. Here is the method: 2. HTRF Cell-Based ALK1 and ALK2 Assays in 384-Well Plate Format We have developed a cell based ALK1 kinase assay and a cell-based ALK2 assay. The BAOEC cell line was employed for the measurement of ALK1 activity using BMP9 as the agonist. The C2C12 cell line was selected for the measurement of ALK2 activity using BMP6 as the agonist. The kinase specificity was defined by the specific cell line and agonist. The kinase activity was determined by the status of SMD 1/5/8 phosphorylation stimulated by the agonist.
HyClone Fetal Bovine Serum was obtained from GE healthcare life sciences (Logan, Utah). BMP6 and BMP9 were purchased from R&D System. […] The compound plates and the white solid MB assay plates were purchased from Greiner Bio-one (Monroe, N.C.).
HTRF optimization experiments were performed in 384 well plate format. […] Pre-starved cells were then plated in 384 well plate in the starvation medium (containing in 0.1% FBS). After 4 hours, compounds were added to the assay plate and incubated for 30 minutes. The assay plate was then added with BMP6 for C2C12 cells or BMP9 for BAOEC cells and incubated for 30 minutes.
HTRF assay was performed to measure the status of SMAD 1 phosphorylation after stimulated with the agonist (Table 3). This HTRF phospho SMAD1 cell assay was developed and optimized for the homogenous detection of phospho SMAD 1 levels in cells. […] The plate was incubated at room temperature for overnight.

Experiment [1] is described as follows: Cell-based assay, TGFb1 (Cell IC50).

Consider `C[S+](=O)([O-])c1cccc(-c2cnn3cc(-c4ccc(OC5(CN6CCCCC6)COC5)cc4)cnc23)c1` [Compound 93, 3-(3-(methylsulfonyl)phenyl)-6-(4-((3-(piperidin-1-ylmethyl)oxetan-3-yl)oxy)phenyl)pyrazolo[1,5-a]pyrimidine], for which the IC50 at ALK1 was determined as 180 nM; in experiment [1], 100000 nM.

With `C[C@@H]1CNC[C@H](C)N1c1ccc(-c2cnc3c(-c4cccc5c(C(N)=O)cccc45)cnn3c2)cc1` [Compound 10, 5-(6-(4-((2S,6R)-2,6-dimethylpiperazin-1-yl)phenyl)pyrazolo[1,5-a]pyrimidin-3-yl)-1-naphthamide], the IC50 is 44 nM and 20 nM on ALK1; 353 nM in experiment [1].

For `CC[S+](=O)([O-])c1cccc(-c2cnn3cc(-c4ccc(N5[C@H](C)CNC[C@@H]5C)cc4)cnc23)c1` [Compound 104, 6-(4-((2R,6S)-2,6-dimethylpiperazin-1-yl)phenyl)-3-(3-(ethylsulfonyl)phenyl)pyrazolo[1,5-a]pyrimidine], on ALK1, the IC50 worked out at 71 nM.

In turn, `C[C@@H]1CNC[C@H](C)N1c1ccc(-c2cnc3c(-c4cccc(S(C)(=O)=O)c4)cnn3c2)cc1` [Compound 82, 6-(4-((2R,6S)-2,6-dimethylpiperazin-1-yl)phenyl)-3-(3-(methylsulfonyl)phenyl)pyrazolo[1,5-a]pyrimidine] returned an IC50 on ALK1 of 190 nM.

Turning to `C[C@@H]1CNC[C@H](C)N1c1ccc(-c2cnc3c(-c4cccc(C(C)(C)O)c4)cnn3c2)cc1` [Compound 103, 2-(3-(6-(4-((2R,6S)-2,6-dimethylpiperazin-1-yl)phenyl)pyrazolo[1,5-a]pyrimidin-3-yl)phenyl)propan-2-ol], on ALK1, the IC50 was 14 nM.

`C[S+](=O)([O-])c1cccc(-c2cnn3cc(-c4ccc(OC5(Cn6ccnc6)COC5)cc4)cnc23)c1` [Compound 105, 6-(4-((3-((1H-imidazol-1-yl)methyl)oxetan-3-yl)oxy)phenyl)-3-(3-(methylsulfonyl)phenyl)pyrazolo[1,5-a]pyrimidine]: the IC50 at ALK1 worked out at 140 nM.

For the compound `N/C(=N/O)c1ccc(-c2cnn3cc(-c4ccc(N5CCNCC5)cc4)cnc23)c2ccccc12` [Compound 15, N′-hydroxy-4-(6-(4-(piperazin-1-yl)phenyl)pyrazolo[1,5-a]pyrimidin-3-yl)-1-naphthimidamide], half-maximal inhibition in experiment [1] (IC50) was put at 2660 nM.

On ALK1, `C[C@@H]1CNC[C@H](C)N1c1ccc(-c2cnc3c(-c4cccc([S+](=O)([O-])C5CC5)c4)cnn3c2)cc1` [Compound 111, 3-(3-(cyclopropylsulfonyl)phenyl)-6-(4-((2R,6S)-2,6-dimethylpiperazin-1-yl)phenyl)pyrazolo[1,5-a]pyrimidine] showed an IC50 of 850 nM.

Compound `CC(C)(CN1CCCCC1)Oc1ccc(-c2cnc3c(-c4cccc5c(C(N)=O)cccc45)cnn3c2)cc1` [Compound 18, 5-(6-(4-((2-methyl-1-(piperidin-1-yl)propan-2-yl)oxy)phenyl)pyrazolo[1,5-a]pyrimidin-3-yl)-1-naphthamide] displayed a 50% inhibitory concentration (IC50) in experiment [1] of 270 nM.

For the compound `CC(O)c1cccc(-c2cnn3cc(-c4ccc(N5[C@H](C)CNC[C@@H]5C)cc4)cnc23)c1` (stereo partly drawn) [Compound 83, 1-(3-(6-(4-((2R,6S)-2,6-dimethylpiperazin-1-yl)phenyl)pyrazolo[5-a]pyrimidin-3-yl)phenyl)ethanol], the IC50 on ALK1 stood at 100 nM; in experiment [1], 956 nM.
